Measured values: PubChem BioAssay (NCI)
Values joined by “and” are separate entries in the source; they are usually repeats but may differ in a detail not shown here. Identical values can stand only once.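 Cells were grown in 96-well plates and exposed to each compound for 48 hours at five concentrations; endpoints were interpolated linearly between bracketing concentrations, or set to the highest concentration if not reached. At the GI50, growth is halved. Definition used: TGI = concentration required for complete inhibition of growth.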

Key:
Test in all cases: inhibition of tumour cell growth, NCI panel, 48 h
[1] = system: SR leukemia
[2] = system: KM12 colon
[3] = system: MDA-MB-435
[4] = system: HOP-62 NSCLC
[5] = system: SK-MEL-2 melanoma
[6] = system: EKVX NSCLC
[7] = system: SK-MEL-5 melanoma
[8] = system: SNB-19 CNS
[9] = system: IGROV1 ovarian
[10] = system: HL-60(TB) leukemia

SMILES | TGI [1] [µM] | TGI [2] | TGI [3] | TGI [4] | TGI [5] | TGI [6] | TGI [7] | TGI [8] | TGI [9] | TGI [10] | GI50 [1] | GI50 [2] | GI50 [3] | GI50 [4] | GI50 [5] | GI50 [6] | GI50 [7] | GI50 [8] | GI50 [9] | GI50 [10]
OCCn1cnc2c(SCc3ccccc3)ncnc21 | > 100 | > 100 µM | > 100 µM | > 100 µM | > 100 µM | > 100 µM | > 100 µM | > 100 µM | > 100 µM | > 100 µM | – | – | – | – | – | – | – | – | – | –
NC(=O)Nc1cc(-c2cccc(F)c2)sc1C(=O)N[C@H]1CCCNC1 | – | 6.38 µM and 3.3 µM | 0.371 µM and 0.668 µM | 1.67 µM and 2.82 µM | > 3.75 µM and 3.15 µM | > 5.79 µM and 8.28 µM | 2.06 µM and 4.27 µM | > 5.85 µM and 6.88 µM | 1.16 µM and 1.74 µM | 3.88 µM and 1.28 µM | 0.0312 µM and 0.14 µM | 0.00626 µM and 0.0351 µM | 0.069 µM and 0.181 µM | 0.0876 µM and 0.292 µM | 0.151 µM and 0.244 µM | 0.576 µM and 1 µM | 0.295 µM and 0.456 µM | 0.562 µM and 0.54 µM | 0.0701 µM and 0.27 µM | 0.101 µM and 0.291 µM
CN(C)c1ccc(C(=NO)c2ccc(N(C)C)cc2)cc1 | > 100 | > 100 µM | 1.92 µM | > 100 µM | > 100 µM | > 100 µM | 4.74 µM | > 100 µM | > 100 µM | > 100 µM | 0.32 µM | 1.28 µM | 0.277 µM | 6.1 µM | 3.57 µM | 3.28 µM | 1.57 µM | 4.04 µM | 2.4 µM | 1.62 µM
CC(=O)[O][Sn]([CH2]c1ccccc1)([CH2]c1ccccc1)[CH2]c1ccccc1 | > 4.64 | > 10 µM | > 10 µM | > 6.75 µM | > 10 µM | > 6.88 µM | > 6.51 µM | > 10 µM | > 10 µM | > 7.61 µM | 3.76 µM | > 10 µM | > 7 µM | > 5.55 µM | > 8.34 µM | > 5.53 µM | 4.15 µM | > 10 µM | > 10 µM | > 5.79 µM
CCSc1nc(SCC)c2c(-c3ccc(OC)c(OC)c3)c(C#N)c(SCC)nc2n1 | > 100 | > 100 µM | 57.8 µM | 63.2 µM | > 100 µM | 53.3 µM | 78.8 µM | > 100 µM | > 100 µM | > 100 µM | 26.5 µM | 43.1 µM | 18.7 µM | 22.6 µM | 63.8 µM | 17.4 µM | 26.6 µM | 47.7 µM | 33.5 µM | 81.1 µM
Cc1cnc(CNC(=O)c2c(=O)c3ccc(N4CCCN(C)CC4)nc3n3c2sc2ccccc23)cn1 | > 34.3 | 10.1 µM | 21.3 µM | 25.4 µM | 27 µM | 23.2 µM | 22.1 µM | 10.1 µM | 22.2 µM | 31.3 µM | 0.0311 µM | 1.5 µM | 5.4 µM | 7.16 µM | 12.5 µM | 9.14 µM | 8.35 µM | 1.52 µM | 1.89 µM | 11.2 µM
C[CH2][Sn]([CH2]C)([O]C(=O)c1ccccc1F)[O][Sn]([CH2]C)([CH2]C)[O]C(=O)c1ccccc1F | > 100 | > 100 µM | – | > 100 µM | 38.6 µM | > 100 µM | > 70.3 µM | > 57.6 µM | > 100 µM | > 75.7 µM | 34.6 µM | > 67.6 µM | – | > 100 µM | 19.1 µM | 33.9 µM | 41.2 µM | > 43.6 µM | > 87.8 µM | 43.3 µM
O=[N+]([O-])c1ccc(N=Nc2ccc(O)c3ccccc23)cc1 | 23.4 | > 100 µM | 19.1 µM | > 100 µM | 21.8 µM | > 100 µM | 13.6 µM | > 100 µM | > 100 µM | 21 µM | 2.99 µM | 3.21 µM | 5.31 µM | 20.3 µM | 3.23 µM | 7.44 µM | 2.55 µM | 4.76 µM | 5.27 µM | 5.39 µM
COc1ccc(C2=CC(c3ccc(OC)cc3Br)N3C=CSC3=N2)cc1 (configuration not stated) | 7.1 | 5.06 µM | 7.95 µM | 24.8 µM | 31.3 µM | – | 16.6 µM | 25.3 µM | 30.7 µM | 19.3 µM | 1.73 µM | 2.28 µM | 2.58 µM | 10.5 µM | 15.2 µM | – | 4.32 µM | 9.79 µM | 7.31 µM | 3.2 µM
COc1cc(OC)c(C(=O)/C=C/c2cccc(C#N)c2)c(OC)c1 | > 50 | 5.97 µM | 6.38 µM | 4.55 µM | 6.44 µM | 5.32 µM | 6.16 µM | 6.61 µM | 5.91 µM | – | 0.241 µM | 1.64 µM | 1.42 µM | 1.33 µM | 1.49 µM | 1.37 µM | 1.55 µM | 1.67 µM | 1.55 µM | –
CN(C)C(=O)c1cnc2oc3ccc(O)cc3c2c1-c1ccccc1 | > 25 | > 25 µM | > 25 µM | > 25 µM | > 25 µM | > 25 µM | > 25 µM | – | > 25 µM | > 25 µM | 3.78 µM | > 25 µM | > 25 µM | > 25 µM | > 25 µM | > 25 µM | 6.75 µM | – | > 25 µM | > 25 µM
COC(=O)C(CC1=C(O)Nc2ccccc2N1)/C(=N/NC(N)=O)C(=O)Nc1ccccc1C (configuration not stated) | 48.5 | > 100 µM | – | > 100 µM | > 100 µM | > 100 µM | > 100 µM | > 100 µM | > 100 µM | > 100 µM | – | – | – | – | – | – | – | – | – | –
Cc1cn2c(/C=C3/C(=O)Nc4ccc(O)cc43)c(C)nc2s1 | 13.6 | 24.3 µM | 1.15 µM | > 68 µM | > 100 µM | > 100 µM | 7.74 µM | > 100 µM | > 100 µM | – | 0.316 µM | 1.8 µM | 0.169 µM | 2.89 µM | > 53 µM | 12.9 µM | 1.4 µM | 5.47 µM | 7.23 µM | –
COc1ccc(COC2CC(OC)OC(C)C2OC(=O)c2ccccc2)cc1 (configuration not stated) | 58.2 | > 100 µM | – | > 100 µM | > 100 µM | > 100 µM | 31.9 µM | > 100 µM | > 100 µM | 49.7 µM | – | – | – | – | – | – | – | – | – | –
